Laboratory results taken from US20240148733A1, “COMBINATION THERAPY” (Genentech, Inc., priority 2021, published 2024).

Tests used:
Assay type in all cases: cell-based
[1] = test system: cells resistant to Compound K2; test: Soft agar 3D culture; conditions: combination with Compound K2 (a KRAS inhibitor); 11-14 day incubation; Gelcount cell counting
Procedure: Two heat blocks (1× without blocks, 1× with 50 ml tube block) were heated to 44° C. Flat-bottom 96-well non-tissue culture treated assay plates (Falcon 353219) and fluid reservoirs were kept at 37° C. 2×RPMI+20% FCS (which can be stored at 4° C.) were made and warmed to 37° C. 100 ml 1.2% agarose and 0.58% agarose solution was made by adding […] sterile water to a sterile 500 ml bottle and then carefully adding 1.2 gram/0.58 gram agarose (using normal out-of-the-hood weight), avoiding bubbles, foam, and sticking of undiluted agarose to walls as much as possible. The solution was then microwaved until fully dissolved and bubbling. The solution was then cooled for 10-15 minutes at room temperature and incubated at 37° C. The solution can be stored at room temperature for future use.
For each plate, 2 ml 1.2% agarose was mixed with 2 ml 2×RPMI+20% FCS in a 50 ml tube in a heat block by swirling the tube (minimizing pipetting up and down, as this cools the agarose too much). By double-tap (pipet is pushed in completely, liquid is taken up, then pushed out until first stop only), 40 μl 1.2% agarose/96-well was added, excluding edge 96-wells. The agarose was set at “waterpas” level and stored at 4° C. until further use. 1.2% agarose-containing plate was placed on ice for 10 minutes before plating cells.
Cells were trypsinized and counted. […]

[2] = test system: H2122 cells (KRAS G12C); test: Drug combination assay (CellTiter-Glo cell viability); conditions: six days, 384-wells
Procedure: (§1) Cells were seeded in either 96-well or 384-well plates 16 h before treatment at a density of 1000 cells per well. Then, cells were treated with varying concentrations of compound(s) as indicated in FIGS. 1-8 (384-wells) and FIGS. 10-105 (96-wells), either a single agent or in combination, for six days. The relative number of viable cells was estimated using CellTiter-Glo Luminescent Cell Viability Assay (Promega, G7573). Total luminescence was detected on a Wallac Multilabel Reader (Perkin-Elmer).

[3] = test system: H358 resistant cells (KRAS G12C); test: as above; conditions: six days, 96-wells
Procedure: as §1

[4] = test system: H2030 cells (KRAS G12C); test: as above; conditions: six days, 96-wells
Procedure: as §1

[5] = test system: H358 parental cells (KRAS G12C); test: as above; conditions: six days, 96-wells
Procedure: as §1

[6] = combination with Compound K1 (a KRAS inhibitor)
[7] = combination with Compound K2 (a KRAS inhibitor)
[8] = combination with Compound K3 (a KRAS inhibitor)
[9] = combination with Compound K4 (a KRAS inhibitor)

| Structure (SMILES) | soft agar 3D culture growth [1] | % inhibition of H2122 cells (KRAS G12C) [2, 6] | % inhibition of H2122 cells (KRAS G12C) [2, 7] | combination effect on cell viability (qualitative) [3, 6] | combination effect on cell viability (qualitative) [3, 7] | combination effect on cell viability (qualitative) [3, 8] | combination effect on cell viability (qualitative) [3, 9] | % inhibition of H2030 cells (KRAS G12C) [4, 6] | % inhibition of H2030 cells (KRAS G12C) [4, 7] | % inhibition of H2030 cells (KRAS G12C) [4, 8] | % inhibition of H2030 cells (KRAS G12C) [4, 9] | % inhibition of H358 parental cells (KRAS G12C) [5, 6] | % inhibition of H358 parental cells (KRAS G12C) [5, 7] | % inhibition of H358 parental cells (KRAS G12C) [5, 8] | % inhibition of H358 parental cells (KRAS G12C) [5, 9] |
| --- | --- | --- | --- | --- | --- | --- | --- | --- | --- | --- | --- | --- | --- | --- | --- |
| C=CC(=O)Nc1cc2c(c(-c3ccc(C(C)C)cc3)c1)OCC2 [Compound T2, N-(7-(4-isopropylphenyl)-2,3-dihydrobenzofuran-5-yl)acrylamide] | sensitizes cells resistant to Compound K2 | sensitizes cells resistant to Compound K1 | sensitizes cells resistant to Compound K2 |  |  |  |  |  |  |  |  |  |  |  |  |
| C=CC(=O)Nc1cnc(OC)c(/C=C/[C@H]2CC[C@H](C(F)(F)F)CC2)c1 [Compound T3, N-(6-methoxy-5-((E)-2-((1r,4r)-4-(trifluoromethyl)cyclohexyl)vinyl)pyridin-3-yl)acrylamide] |  | sensitizes cells resistant to Compound K1 | sensitizes cells resistant to Compound K2 | sensitizes cells resistant to Compound K1 | sensitizes cells resistant to Compound K2 | sensitizes cells resistant to Compound K3 | sensitizes cells resistant to Compound K4 | sensitizes cells resistant to Compound K1 | sensitizes cells resistant to Compound K2 | sensitizes cells resistant to Compound K3 | sensitizes cells resistant to Compound K4 | sensitizes cells resistant to Compound K1 | sensitizes cells resistant to Compound K2 | sensitizes cells resistant to Compound K3 | sensitizes cells resistant to Compound K4 |
| CNS(=O)(=O)c1ccc(Nc2ccc(C(F)(F)F)cc2)c(-c2cn(C)cn2)c1 [Compound T8, N-methyl-3-(1-methylimidazol-4-yl)-4-[4-(trifluoromethyl)anilino]benzenesulfonamide] |  |  |  | sensitizes cells resistant to Compound K1 | sensitizes cells resistant to Compound K2 | sensitizes cells resistant to Compound K3 | sensitizes cells resistant to Compound K4 | sensitizes cells resistant to Compound K1 | sensitizes cells resistant to Compound K2 | sensitizes cells resistant to Compound K3 | sensitizes cells resistant to Compound K4 | sensitizes cells resistant to Compound K1 | sensitizes cells resistant to Compound K2 | sensitizes cells resistant to Compound K3 | sensitizes cells resistant to Compound K4 |
| C=C(CNc1cc(-c2ccc(C(C)C)cc2)c2c(c1C#N)CCO2)C(=O)O [Compound T4, 2-(((4-cyano-7-(4-isopropylphenyl)-2,3-dihydrobenzofuran-5-yl)amino)methyl)acrylic acid] |  | sensitizes cells resistant to Compound K1 | sensitizes cells resistant to Compound K2 |  |  |  |  |  |  |  |  |  |  |  |  |
| Cn1cc2c3cc(C(=O)O)ccc3n(-c3ccc(C(F)(F)F)cc3)c2n1 [Compound T10] |  |  |  | sensitizes cells resistant to Compound K1 | sensitizes cells resistant to Compound K2 | sensitizes cells resistant to Compound K3 | sensitizes cells resistant to Compound K4 | sensitizes cells resistant to Compound K1 | sensitizes cells resistant to Compound K2 | sensitizes cells resistant to Compound K3 | sensitizes cells resistant to Compound K4 | sensitizes cells resistant to Compound K1 | sensitizes cells resistant to Compound K2 | sensitizes cells resistant to Compound K3 | sensitizes cells resistant to Compound K4 |
| COc1cnc(C(=O)NCc2cccc(CC(=O)N(C)CCOCCOCCOCCOCCOc3ccc4c(c3)C(=O)N(C3CCC(=O)NC3=O)C4=O)c2)cc1/C=C/[C@H]1CC[C@H](C(F)(F)F)CC1 (stereo partly drawn) [Compound T5, N-[[3-[2-[2-[2-[2-[2-[2-[2-(2,6-dioxo-3-piperidyl)-1,3-dioxo-isoindolin-5-yl]oxyethoxy]ethoxy]ethoxy]ethoxy]ethyl-methyl-amino]-2-oxo-ethyl]phenyl]methyl]-5-methoxy-4-[rac-(E)-2-[4-(trifluoromethyl)cyclohexyl]vinyl]pyridine-2-carboxamide] |  |  |  | sensitizes cells resistant to Compound K1 | sensitizes cells resistant to Compound K2 | sensitizes cells resistant to Compound K3 | sensitizes cells resistant to Compound K4 | sensitizes cells resistant to Compound K1 | sensitizes cells resistant to Compound K2 | sensitizes cells resistant to Compound K3 | sensitizes cells resistant to Compound K4 | sensitizes cells resistant to Compound K1 | sensitizes cells resistant to Compound K2 | sensitizes cells resistant to Compound K3 | sensitizes cells resistant to Compound K4 |
